Test results taken from ChEMBL document CHEMBL5154791, “Optimization of a Pyrimidinone Series for Selective Inhibition of Ca2+/Calmodulin-Stimulated Adenylyl Cyclase 1 Activity for the Treatment of Chronic Pain” (J Med Chem, 2022).
Converted amounts (≈) assume the structure as drawn. The source made the active and inactive calls. The rule behind the calls is not given here.

How the values were obtained:
Adenylate cyclase type 8 [1] = molecular target: T1, Adenylate cyclase type 8 (Homo sapiens, UniProt P40145); assay: Inhibition of Ca2+/ CAM stimulated human AC8 activity expressed in AC3 and AC6-knockout HEK293 cells assessed as A23187 stimulated cAMP accumulation incubated for 30 mins followed by […] in presence of IBMX for 1 hr by HTRF assay; type: cell-based
Adenylate cyclase type 8 [2] = molecular target: T1, Adenylate cyclase type 8; assay: Inhibition of Ca2+/ CAM stimulated human AC8 activity expressed in AC3 and AC6-knockout HEK293 cells assessed as A23187 stimulated cAMP accumulation incubated for 30 mins followed by […] in presence of IBMX for 1 hr by HTRF assay relative to control; type: cell-based; parameters: concentration or dose not given beside the values; details: time 90.0 min
Adenylate cyclase type 1 = Adenylate cyclase type 1 (Homo sapiens, UniProt Q08828)
Description: Inhibition of Ca2+/ CAM stimulated human AC1 activity expressed in AC3 and AC6-knockout HEK293 cells assessed as A23187 stimulated cAMP accumulation incubated for 30 mins followed by A2318 stimulation in presence of IBMX for 1 hr by HTRF assay

[3] = molecular target: Insulin receptor (Homo sapiens) (UniProt P06213); assay: Inhibition of human recombinant IRK assessed as inhibition of phosphorylation activity at 10 uM using 33P-labeleled peptide substrate by radiometric scintillation counting assay relative to control
HEK293 = assay: Cytotoxicity against HEK293 cells assessed as reduction in cell viability at 30 uM incubated for 1 hr by cell titer glo assay; type: toxicity, cell-based; details: human, hek293, 1 h
[4] = molecular target: 5-hydroxytryptamine receptor 2B (Homo sapiens, UniProt P41595); assay: Binding affinity to 5-HT2B receptor (unknown origin) assessed as displacement of radioligand at 10 uM by radioligand binding assay
Adenylate cyclase type 8 [5] = molecular target: T1, Adenylate cyclase type 8; assay: Inhibition of Ca2+/ CAM stimulated human AC8 expressed in AC3 and AC6-knockout HEK293 cells assessed as A23187 stimulated cAMP accumulation at 10 uM incubated for 30 mins followed by […] in presence of IBMX for 1 hr by HTRF assay relative to control; type: cell-based; details: time 90.0 min
[6] = molecular target: Voltage-gated inwardly rectifying potassium channel KCNH2 (Homo sapiens, UniProt Q12809); assay: Displacement of [3H]astemizole from human ERG expressed in HEK293 cell membrane at 10 uM by Radiometric displacement assay relative to control; type: toxicity, cell membranes; details: hek293, 10 µM
[7] = Thermodynamic solubility of the compound in PBS at pH 7.4; type: physicochemical; details: read-out: Therm_solubility
[8] = Apparent permeability in MDCK-II cells; type: ADME, cell-based, Canis lupus familiaris; details: dog
CYP1A2 = molecular target: T2, CYP1A2 (Homo sapiens, UniProt P05177); assay: Inhibition of CYP1A2 (unknown origin) at 10 uM relative to control; type: ADME
T2 sequence (P05177 whole entry): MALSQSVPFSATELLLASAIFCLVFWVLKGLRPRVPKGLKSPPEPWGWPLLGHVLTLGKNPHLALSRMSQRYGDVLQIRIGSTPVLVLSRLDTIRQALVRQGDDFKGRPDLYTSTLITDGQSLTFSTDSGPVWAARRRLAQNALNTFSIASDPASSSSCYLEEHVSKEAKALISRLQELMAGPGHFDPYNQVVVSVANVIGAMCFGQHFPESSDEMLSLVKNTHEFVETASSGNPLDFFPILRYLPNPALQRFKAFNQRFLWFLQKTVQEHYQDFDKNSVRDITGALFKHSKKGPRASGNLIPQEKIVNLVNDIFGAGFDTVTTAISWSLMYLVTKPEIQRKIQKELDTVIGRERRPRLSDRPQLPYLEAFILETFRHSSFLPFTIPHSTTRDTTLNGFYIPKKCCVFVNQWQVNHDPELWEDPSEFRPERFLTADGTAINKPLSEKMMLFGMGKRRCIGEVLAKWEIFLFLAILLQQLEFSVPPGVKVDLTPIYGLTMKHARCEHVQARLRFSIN

CYP2C19 = CYP2C19 (Homo sapiens, UniProt P33261); assay: Inhibition of CYP2C19 (unknown origin) at 10 uM relative to control; type: ADME
CYP2C9 = CYP2C9 (Homo sapiens, UniProt P11712); assay: Inhibition of CYP2C9 (unknown origin) at 10 uM relative to control; type: ADME
CYP2D6 = CYP2D6 (Homo sapiens, UniProt P10635); assay: Inhibition of CYP2D6 (unknown origin) at 10 uM relative to control; type: ADME
CYP3A4 = CYP3A4 (Homo sapiens, UniProt P08684); assay: Inhibition of CYP3A4 (unknown origin) at 10 uM relative to control; type: ADME
[9] = Metabolic stability in human liver microsomes assessed as compound remaining after 15 mins; type: ADME, Microsome; details: 0.25 h
[10] = Metabolic stability in human liver microsomes assessed as compound remaining after 30 mins; type: ADME, Microsome; details: 0.5 h
[11] = Metabolic stability in human liver microsomes assessed as compound remaining after 45 mins; type: ADME, Microsome; details: 0.75 h
[12] = Metabolic stability in human liver microsomes assessed as compound remaining after 60 mins; type: ADME, Microsome; details: 1 h
[13] = Half life in human liver microsomes; type: ADME, Microsome
[14] = Intrinsic clearance in human liver microsomes; type: ADME, Microsome
Mus musculus [15] = assay: Antiallodynic activity against CFA-induced C57BL/6N mouse inflammatory pain model assessed as inhibition of inflammatory mechanical allodynia at 5.6 mg/kg, ip measured at 1 hr post treatment by von Frey test; type: functional, organism-based
[16] = molecular target: Vascular endothelial growth factor receptor 2 (Homo sapiens) (UniProt P35968); assay: Inhibition of human recombinant VEGFR2 assessed as inhibition of phosphorylation activity at 10 uM using 33P-labeleled peptide substrate by radiometric scintillation counting assay relative to control
Mus musculus [17] = assay: Antiallodynic activity against CFA-induced C57BL/6N mouse inflammatory pain model assessed as inhibition of inflammatory mechanical allodynia at 5.6 mg/kg, ip measured over 2 hrs post treatment by von Frey test; type: functional, organism-based

Chain of Insulin receptor (Homo sapiens) (P06213 28-758 limits assumed): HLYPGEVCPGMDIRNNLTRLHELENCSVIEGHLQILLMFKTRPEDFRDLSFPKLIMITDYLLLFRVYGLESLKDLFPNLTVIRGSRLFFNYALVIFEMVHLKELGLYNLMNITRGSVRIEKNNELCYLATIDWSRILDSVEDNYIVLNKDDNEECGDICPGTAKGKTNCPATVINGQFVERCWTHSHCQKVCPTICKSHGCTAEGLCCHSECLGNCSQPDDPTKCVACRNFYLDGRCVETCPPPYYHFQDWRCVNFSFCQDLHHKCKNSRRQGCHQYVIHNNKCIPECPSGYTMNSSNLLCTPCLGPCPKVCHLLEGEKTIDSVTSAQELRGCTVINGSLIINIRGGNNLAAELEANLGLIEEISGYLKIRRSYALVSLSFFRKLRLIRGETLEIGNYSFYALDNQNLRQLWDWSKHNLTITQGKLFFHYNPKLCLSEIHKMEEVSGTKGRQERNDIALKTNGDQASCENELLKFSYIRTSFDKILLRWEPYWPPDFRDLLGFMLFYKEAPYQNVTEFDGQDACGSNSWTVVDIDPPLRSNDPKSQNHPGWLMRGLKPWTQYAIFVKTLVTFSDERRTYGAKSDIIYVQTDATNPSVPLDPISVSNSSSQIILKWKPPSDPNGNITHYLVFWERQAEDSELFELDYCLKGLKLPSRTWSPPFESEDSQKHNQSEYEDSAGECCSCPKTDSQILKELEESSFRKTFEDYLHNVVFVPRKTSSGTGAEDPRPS
Chain of Insulin receptor (Homo sapiens) (P06213 763-1382 limits assumed): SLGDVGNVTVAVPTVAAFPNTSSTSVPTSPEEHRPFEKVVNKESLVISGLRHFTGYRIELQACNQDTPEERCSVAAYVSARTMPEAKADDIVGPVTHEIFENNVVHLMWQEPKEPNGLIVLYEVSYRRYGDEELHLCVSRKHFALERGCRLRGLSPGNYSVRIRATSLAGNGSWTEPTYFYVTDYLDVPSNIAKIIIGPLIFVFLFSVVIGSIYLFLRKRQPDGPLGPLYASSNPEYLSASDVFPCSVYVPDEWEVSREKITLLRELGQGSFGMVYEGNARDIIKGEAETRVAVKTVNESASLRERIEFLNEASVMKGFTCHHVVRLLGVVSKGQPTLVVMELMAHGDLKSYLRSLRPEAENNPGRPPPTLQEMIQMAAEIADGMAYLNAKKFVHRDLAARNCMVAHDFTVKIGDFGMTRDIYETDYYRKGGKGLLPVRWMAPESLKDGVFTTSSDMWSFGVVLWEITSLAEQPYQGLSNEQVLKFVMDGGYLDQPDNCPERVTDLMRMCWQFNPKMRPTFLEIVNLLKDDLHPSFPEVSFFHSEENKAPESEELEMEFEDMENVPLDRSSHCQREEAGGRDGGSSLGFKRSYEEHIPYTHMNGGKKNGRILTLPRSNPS
Chain of 5-hydroxytryptamine receptor 2B (P41595 whole entry): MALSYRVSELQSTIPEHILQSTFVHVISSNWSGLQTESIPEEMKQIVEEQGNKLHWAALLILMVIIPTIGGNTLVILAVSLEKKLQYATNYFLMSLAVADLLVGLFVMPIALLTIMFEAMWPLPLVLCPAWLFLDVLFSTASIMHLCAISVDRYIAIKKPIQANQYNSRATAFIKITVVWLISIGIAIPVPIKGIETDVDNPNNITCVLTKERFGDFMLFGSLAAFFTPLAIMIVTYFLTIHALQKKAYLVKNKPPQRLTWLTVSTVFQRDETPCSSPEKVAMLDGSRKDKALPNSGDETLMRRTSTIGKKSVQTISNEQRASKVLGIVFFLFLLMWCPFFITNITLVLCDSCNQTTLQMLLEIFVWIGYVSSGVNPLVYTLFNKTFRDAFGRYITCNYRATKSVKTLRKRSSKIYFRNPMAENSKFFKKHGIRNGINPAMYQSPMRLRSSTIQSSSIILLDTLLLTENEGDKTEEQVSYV
T1 sequence (P40145 whole entry): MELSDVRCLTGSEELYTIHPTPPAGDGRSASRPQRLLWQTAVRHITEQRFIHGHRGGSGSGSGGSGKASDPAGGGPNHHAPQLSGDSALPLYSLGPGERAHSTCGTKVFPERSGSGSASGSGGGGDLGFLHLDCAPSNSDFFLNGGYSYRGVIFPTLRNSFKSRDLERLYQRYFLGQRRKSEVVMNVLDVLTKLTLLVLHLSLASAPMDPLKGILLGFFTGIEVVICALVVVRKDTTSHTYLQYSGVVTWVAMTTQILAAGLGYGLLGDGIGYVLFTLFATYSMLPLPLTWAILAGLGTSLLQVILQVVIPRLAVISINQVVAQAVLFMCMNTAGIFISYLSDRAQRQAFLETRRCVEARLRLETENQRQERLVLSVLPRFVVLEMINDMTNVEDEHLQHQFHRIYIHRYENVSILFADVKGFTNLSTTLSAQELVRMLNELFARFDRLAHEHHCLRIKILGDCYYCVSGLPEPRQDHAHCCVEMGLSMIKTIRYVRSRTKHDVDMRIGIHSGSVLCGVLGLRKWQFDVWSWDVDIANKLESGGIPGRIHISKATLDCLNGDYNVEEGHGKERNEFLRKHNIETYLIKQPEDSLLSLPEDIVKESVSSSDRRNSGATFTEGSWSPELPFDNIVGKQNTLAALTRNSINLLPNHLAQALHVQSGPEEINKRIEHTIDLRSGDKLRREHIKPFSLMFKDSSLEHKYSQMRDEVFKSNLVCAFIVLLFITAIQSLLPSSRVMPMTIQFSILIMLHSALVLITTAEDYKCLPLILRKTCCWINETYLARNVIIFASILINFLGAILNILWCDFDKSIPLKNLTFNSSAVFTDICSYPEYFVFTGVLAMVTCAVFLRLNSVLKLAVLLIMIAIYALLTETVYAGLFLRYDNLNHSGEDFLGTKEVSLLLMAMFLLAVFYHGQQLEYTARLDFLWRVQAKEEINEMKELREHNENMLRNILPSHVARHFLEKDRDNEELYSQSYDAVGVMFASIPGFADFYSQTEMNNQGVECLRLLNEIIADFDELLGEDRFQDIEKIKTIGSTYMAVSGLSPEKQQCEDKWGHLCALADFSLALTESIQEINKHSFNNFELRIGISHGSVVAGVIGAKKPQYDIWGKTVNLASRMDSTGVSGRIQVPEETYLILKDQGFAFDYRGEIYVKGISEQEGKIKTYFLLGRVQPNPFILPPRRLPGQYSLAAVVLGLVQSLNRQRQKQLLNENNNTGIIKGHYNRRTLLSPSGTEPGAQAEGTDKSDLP
Chain of Adenylate cyclase type 1 (Q08828 whole entry): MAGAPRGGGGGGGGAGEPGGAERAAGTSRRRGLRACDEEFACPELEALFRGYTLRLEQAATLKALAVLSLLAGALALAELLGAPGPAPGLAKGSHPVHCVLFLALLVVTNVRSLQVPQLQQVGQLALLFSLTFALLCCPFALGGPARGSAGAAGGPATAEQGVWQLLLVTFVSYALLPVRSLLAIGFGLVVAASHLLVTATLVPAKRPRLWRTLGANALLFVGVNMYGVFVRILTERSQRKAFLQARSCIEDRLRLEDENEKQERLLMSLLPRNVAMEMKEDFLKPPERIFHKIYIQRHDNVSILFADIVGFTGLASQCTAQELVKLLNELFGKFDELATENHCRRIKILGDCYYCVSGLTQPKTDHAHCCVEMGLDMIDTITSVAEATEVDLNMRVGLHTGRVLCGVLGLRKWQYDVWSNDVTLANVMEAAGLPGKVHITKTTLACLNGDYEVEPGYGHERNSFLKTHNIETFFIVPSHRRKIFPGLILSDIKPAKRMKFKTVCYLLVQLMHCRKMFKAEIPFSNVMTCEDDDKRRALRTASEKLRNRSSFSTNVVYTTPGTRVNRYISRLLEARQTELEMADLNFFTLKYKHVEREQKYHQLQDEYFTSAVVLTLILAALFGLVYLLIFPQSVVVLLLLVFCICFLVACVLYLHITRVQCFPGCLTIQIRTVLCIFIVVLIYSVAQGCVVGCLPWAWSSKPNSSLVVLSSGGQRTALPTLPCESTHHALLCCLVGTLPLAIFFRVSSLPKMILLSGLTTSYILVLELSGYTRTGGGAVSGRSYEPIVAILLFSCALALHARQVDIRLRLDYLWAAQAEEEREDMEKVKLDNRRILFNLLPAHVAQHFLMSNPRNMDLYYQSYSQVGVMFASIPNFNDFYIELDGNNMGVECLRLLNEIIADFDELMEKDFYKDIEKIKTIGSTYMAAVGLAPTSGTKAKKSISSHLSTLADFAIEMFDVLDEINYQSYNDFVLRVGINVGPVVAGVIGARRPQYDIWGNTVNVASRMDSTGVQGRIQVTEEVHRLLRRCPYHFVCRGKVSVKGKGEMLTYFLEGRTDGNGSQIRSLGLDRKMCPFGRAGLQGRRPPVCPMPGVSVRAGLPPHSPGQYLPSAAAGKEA
Chain of CYP2C19 (P33261 whole entry): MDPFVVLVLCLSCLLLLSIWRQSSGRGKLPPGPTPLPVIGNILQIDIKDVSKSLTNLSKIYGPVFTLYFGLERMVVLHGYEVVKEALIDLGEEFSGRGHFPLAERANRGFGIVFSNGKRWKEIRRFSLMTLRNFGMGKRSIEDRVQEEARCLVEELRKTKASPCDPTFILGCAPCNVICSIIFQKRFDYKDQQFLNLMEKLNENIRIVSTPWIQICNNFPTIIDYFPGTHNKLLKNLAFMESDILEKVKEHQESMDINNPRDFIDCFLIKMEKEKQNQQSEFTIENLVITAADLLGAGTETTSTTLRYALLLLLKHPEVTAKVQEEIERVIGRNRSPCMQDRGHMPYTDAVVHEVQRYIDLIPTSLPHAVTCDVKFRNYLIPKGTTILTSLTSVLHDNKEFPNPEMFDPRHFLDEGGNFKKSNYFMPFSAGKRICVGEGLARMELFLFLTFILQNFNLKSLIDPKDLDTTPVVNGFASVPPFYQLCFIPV

Row | Structure (SMILES) | IC50 (Adenylate cyclase type 8 [1]) [µM] | inhibition (Adenylate cyclase type 8 [2]) [%] | IC50 (Adenylate cyclase type 1) [µM] | further results
1 | CCc1cc(=O)[nH]c(-n2nc(C)cc2NC(=O)c2ccco2)n1 | 15.7 | 20 | 6.7 | 
2 | CCc1cc(=O)[nH]c(-n2nc(C)cc2NC(=O)c2ccccc2C)n1 | 15.7 | 11 | 2.2 | 
3 | CCc1cc(=O)[nH]c(-n2nc(C)cc2NC(=O)Cc2ccccc2F)n1 | 3.4 |  | 16.3 | 
4 | CCOc1cccc(C(=O)Nc2cc(C)nn2-c2nc(CC)cc(=O)[nH]2)c1 | 4.4 | 11 | 0.9 | 
5 | CCc1cc(=O)[nH]c(-n2nc(C)cc2NC(=O)c2cccc(Br)c2)n1 | 2.1 | 15 | 0.61 | 
6 | CCc1cc(=O)[nH]c(-n2nc(C)cc2NC(=O)c2cccc(C(C)(C)C)c2)n1 | 0.38 | 25 | 0.88 | 
7 | CCc1cc(=O)[nH]c(-n2nc(C)cc2NC(=O)c2cccc(-c3ccccc3)c2)n1 | 0.57 | 37 | 0.25 | 
8 | CCc1cc(=O)[nH]c(-n2nc(C)cc2NC(=O)c2cccc(C)c2F)n1 | > 60 | 9 | 0.57 | 
9 | CCc1cc(=O)[nH]c(-n2nc(C)cc2NC(=O)c2ccccc2)n1 | 35.9 | 0 | 2.8 | 
10 | CCc1cc(=O)[nH]c(-n2nc(C)cc2NC(=O)c2ccc(N(C)C)cc2)n1 | 1 | 39 | 2.3 | 
11 | CCc1cc(=O)[nH]c(-n2nc(C)cc2NC(=O)c2ccc(OCOC)cc2)n1 | > 30 |  | 4.3 | 
12 | CCc1cc(=O)[nH]c(-n2nc(C)cc2NC(=O)c2cccc(F)c2)n1 | 1.6 | 55 | 1.4 | 
13 | CCc1cc(=O)[nH]c(-n2nc(C)cc2NC(=O)c2cccc(OC)c2)n1 | 9.6 | 5 | 1.42 | 
14 | CCc1cc(=O)[nH]c(-n2nc(C)cc2NC(=O)c2ccc(-c3ccccc3)cc2)n1 | 0.7 | 32 | 0.77 | 
15 | CCc1cc(=O)[nH]c(-n2nc(C)cc2NC(=O)c2ccc(C)c(C)c2)n1 | 0.71 | 27 | 0.29 | inhibition [3]: 4%; Activity (HEK293): Non-Toxic; inhibition [4]: 32%; inhibition (Adenylate cyclase type 8 [5]): Active; inhibition (INH) [6]: 11%; solubility thermodynamic [7]: 7.6 µM (≈ 2.67 µg/mL)
16 | CCc1cc(=O)[nH]c(-n2nc(C)cc2NC(=O)c2cccc(Cl)c2)n1 | 1 | 48 | 0.47 | 
17 | CCc1cc(=O)[nH]c(-n2nc(C)cc2NC(=O)c2ccc(O)cc2)n1 | > 60 |  | > 60 | 
18 | CCc1cc(=O)[nH]c(-n2nc(C)cc2NC(=O)Cc2cccc(C)c2)n1 | > 60 | 59 | 9.2 | 
19 | CCc1ccc(C(=O)Nc2cc(C)nn2-c2nc(CC)cc(=O)[nH]2)cc1 | 6.6 | 19 | 0.39 | 

Row | Structure (SMILES) | IC50 (Adenylate cyclase type 8 [1]) [µM] | inhibition (Adenylate cyclase type 8 [2]) [%] | IC50 (Adenylate cyclase type 1) [µM] | further results
20 | CCc1cc(=O)[nH]c(-n2nc(C)cc2NC(=O)c2ccc(C)cc2)n1 | > 60 | 27 | 0.67 | 
21 | CCc1cc(=O)[nH]c(-n2nc(C)cc2NC(=O)c2ccc(F)cc2)n1 | 0.78 | 52 | 0.79 | 
22 | CCc1cc(=O)[nH]c(-n2nc(C)cc2NC(=O)c2cc(C)ccc2F)n1 |  |  |  | Papp [8]: 2.21 ×10⁻⁶ cm/s; inhibition [3]: 64%; Activity (HEK293): Non-Toxic; inhibition (Adenylate cyclase type 8 [5]): Active; inhibition (INH) [6]: 6%; solubility thermodynamic [7]: 33.6 µM (≈ 11.9 µg/mL); inhibition at 10 µM (CYP1A2): 8.7%; inhibition at 10 µM (CYP2C19): 1.8%; inhibition at 10 µM (CYP2C9): -0.2%; inhibition at 10 µM (CYP2D6): 0.3%; inhibition at 10 µM (CYP3A4): -0.9%; Stability [9]: 88.3%; Stability [10]: 67.4%; Stability [11]: 57.5%; Stability [12]: 44.5%; t1/2 [13]: 51.2 min; CLH [14]: 136.7 µL/min/mg; Activity (Mus musculus [15]): Active
23 | CCc1cc(=O)[nH]c(-n2nc(C)cc2NC(=O)c2cc(C)cc(C)c2)n1 | 1.7 | 27 | 0.52 | 
24 | CCc1cc(=O)[nH]c(-n2nc(C)cc2NC(C)=O)n1 | 10.6 |  | > 30 | 
25 | CCc1cc(=O)[nH]c(-n2nc(C)cc2NC(=O)c2cccc(SC)c2)n1 | 1.3 | 52 | 0.63 | 
26 | CCc1cc(=O)[nH]c(-n2nc(C)cc2NC(=O)c2ccc(C(C)(C)C)cc2)n1 | 1.2 | 35 | 0.97 | 
27 | CCc1cc(=O)[nH]c(-n2nc(C)cc2NC(=O)c2ccc(OC)cc2)n1 | > 60 | 0 |  | 
28 | CCc1cc(=O)[nH]c(-n2nc(C)cc2NC(=O)c2ccccc2CC)n1 | > 60 | 21 | 3.1 | 
29 | CCc1cccc(C(=O)Nc2cc(C)nn2-c2nc(CC)cc(=O)[nH]2)c1 | 3.5 | 12 | 0.44 | inhibition [3]: 57%; Activity (HEK293): Non-Toxic; inhibition ([4]; filed as antagonist): 49%; inhibition (Adenylate cyclase type 8 [5]): Active; inhibition [16]: 28%; solubility thermodynamic [7]: 10.8 µM (≈ 3.8 µg/mL)
30 | CCc1cc(=O)[nH]c(-n2nc(C)cc2NC(=O)c2cccc(C)c2)n1 | 2.7 | 27 | 0.41 | Activity (HEK293): Non-Toxic; Ki [4]: 0.9 µM; inhibition (Adenylate cyclase type 8 [5]): Active; solubility thermodynamic [7]: 19.5 µM (≈ 6.58 µg/mL)
31 | CCc1cc(=O)[nH]c(-n2nc(C)cc2NC(=O)c2ccc(Cl)cc2)n1 | 2.5 | 53 | 0.36 | 
32 | CCc1cc(=O)[nH]c(-n2nc(C)cc2NC(=O)c2cccc(C(C)C)c2)n1 | 2.6 | 28 | 0.36 | 
33 | CCc1cc(=O)[nH]c(-n2nc(C)cc2NC(=O)c2cccc(C3CC3)c2)n1 | 1.9 | 17 | 0.81 | 
34 | CCc1cc(=O)[nH]c(-n2nc(C)cc2NC(=O)c2ccccc2F)n1 | 1.9 | 46 | 1.4 | Activity (HEK293): Non-Toxic; Ki [4]: 1.3 µM; inhibition (Adenylate cyclase type 8 [5]): Active
35 | CN1CC[C@]23c4c5ccc(O)c4O[C@H]2[C@@H](O)C=C[C@H]3[C@H]1C5 |  |  |  | Activity (Mus musculus [17]): Active
36 | CCc1cc(=O)[nH]c(-n2nc(C)cc2NC(=O)c2cccc(C(F)(F)F)c2)n1 | 1.3 | 41 | 0.68 | 
37 | CCc1cc(=O)[nH]c(-n2nc(C)cc2NC(=O)c2ccccn2)n1 | 2.8 | 46 |  | 
